# Laboratory results reported in US20060275294A1, “METHOD OF PREVENTION AND TREATMENT OF AGING, AGE-RELATED DISORDERS AND/OR AGE-RELATED MANIFESTATIONS INCLUDING ATHEROSCLEROSIS, PERIPHERAL VASCULAR DISEASE, CORONARY ARTERY DISEASE, OSTEOPOROSIS, ARTHRITIS, TYPE 2 DIABETES, DEMENTIA, ALZHEIMERS DISEASE AND CANCER” (priority 2002, published 2006).
# Read-outs that look alike come from different tables or passages of the source.
# Experiments:
# rat models = conditions: meta-analysis of 13 studies; cited from earlier work
# sIL6R = conditions: four-day dietary intervention, exchange for LA; cited from earlier work
# [1] = system: human prostate carcinoma PC-3 cell line; conditions: cited from earlier work
# T lymphoma cells = conditions: cited from earlier work
# [2] = system: cultured human pituitary adenoma cells; parameters: mean inhibition of thymidine uptake (+/−SD inhibition of basal) / mean inhibition of thymidine uptake: unit of the concentration uncertain; conditions: cited from earlier work
# [3] = system: IL-1 beta, IL-6, and TNF-alpha; conditions: cited from earlier work
# mice = conditions: cited from earlier work
# STAT1 and STAT3 = conditions: cited from earlier work
# [4] = system: human breast cancer MCF-7 cells; conditions: cited from earlier work
# [5] = system: renal cell carcinoma cell line, GRC-1; conditions: 20 micromol/L, 72 hours; cited from earlier work
# [6] = target: T1, epidermal growth factor receptor tyrosine kinase (Rattus norvegicus, UniProt G3V6K6); conditions: SHR vs normotensive Wistar rat cells; cited from earlier work
# T1 construct: measured thymidine incorporation in epidermal growth factor-stimulated vascular smooth muscle cells; endogenous in cells; host or cells: aortic vascular smooth muscle cells of SHR and normotensive rats
# [7] = system: New Zealand White rabbits; conditions: cited from earlier work
# [8] = system: orthotopic prostate carcinoma model of PC-3 cells in nude mice; conditions: cited from earlier work
# [9] = system: cultured human astrocytes; conditions: cited from earlier work
# [10] = system: rat vascular smooth muscle cells; conditions: cited from earlier work
# [11] = system: experimental diabetic rat model; conditions: cited from earlier work
# [12] = system: spontaneously hypertensive rats (SHR); conditions: cited from earlier work
# [13] = system: three human pancreatic cancer cell types; conditions: three cell lines; read-out: mean IC(50) proliferation; cited from earlier work
# [14] = 54 mg/day; cited from earlier work
# Tg APPsw transgenic mice = conditions: mouse, in vivo; cited from earlier work
# Male Wistar rats = conditions: cited from earlier work
# JB6 cell = conditions: cited from earlier work
# [15] = system: mouse mammary carcinoma 4T1 cells; conditions: dose- and time-dependent; cited from earlier work
# IKK [16] = target: T2, IKK (Homo sapiens, UniProt O14920+O15111); conditions: human epithelial cells; cited from earlier work
# T2 construct: endogenous in cells; also 'human epithelial cells'
# IKK [17] = conditions: 50 to 200 μM, intestinal epithelial cell line; cited from earlier work
# [18] = system: murine neuron-like cells (N2a) and primary neurons with Swedish mutant APP; conditions: cited from earlier work
# neutrophil = conditions: in vitro; cited from earlier work
# NF-kappaB = conditions: cited from earlier work
# [19] = system: MMTV-Her-2/neu NF639 cell; conditions: cited from earlier work
# [20] = system: human epidermoid carcinoma (A431) cells; conditions: cited from earlier work
# STAT-1 = conditions: cited from earlier work
# [21] = system: patients with Paget's bone disease; conditions: end of study, cited from earlier work
# [22] = system: human epidermoid head and neck KB and lung H1355 cancer cells; conditions: read-out: IC(50) growth inhibition; 48 h exposure; cited from earlier work
# osteoblasts = conditions: cited from earlier work
# [23] = severe chronic renal failure or dialysis; cited from earlier work
# [24] = system: patients with osteoarthritis; experiment: Osteoarthritis patients in applicant's clinic; assay type: in vivo, human
# [25] = system: diabetic patients with active Charcot neuroarthropathy; conditions: cited from earlier work
# Interleukin-6 = conditions: infusion; cited from earlier work
# [26] = system: Zucker lean and fatty rats; conditions: 50 mg/kg/day vs vehicle; cited from earlier work
# [27] = system: human T, B and myeloma tumor cells; conditions: by promoting apoptosis; cited from earlier work
# [28] = 80 mg daily; cited from earlier work
# [29] = system: patients with primary hypercholesterolemia; conditions: cited from earlier work
# KK/Ay mice = conditions: mouse, in vivo; cited from earlier work
# [30] = system: patients with type 2 diabetes; conditions: cited from earlier work
# [31] = system: MCF-7 breast cancer cells; conditions: absence of estradiol; cited from earlier work
# [32] = system: esophageal carcinoma cell line CE48T/VGH; conditions: cited from earlier work
# [33] = system: animals with experimental arthritis; conditions: prophylactic or therapeutic treatment; cited from earlier work
# [34] = system: NOD/SCID mice engrafted with human primary leukemic cells; conditions: mouse, in vivo; cited from earlier work
# leukemic cells = conditions: concentration- and time-dependent; cited from earlier work
# T1 sequence (G3V6K6 25-1209): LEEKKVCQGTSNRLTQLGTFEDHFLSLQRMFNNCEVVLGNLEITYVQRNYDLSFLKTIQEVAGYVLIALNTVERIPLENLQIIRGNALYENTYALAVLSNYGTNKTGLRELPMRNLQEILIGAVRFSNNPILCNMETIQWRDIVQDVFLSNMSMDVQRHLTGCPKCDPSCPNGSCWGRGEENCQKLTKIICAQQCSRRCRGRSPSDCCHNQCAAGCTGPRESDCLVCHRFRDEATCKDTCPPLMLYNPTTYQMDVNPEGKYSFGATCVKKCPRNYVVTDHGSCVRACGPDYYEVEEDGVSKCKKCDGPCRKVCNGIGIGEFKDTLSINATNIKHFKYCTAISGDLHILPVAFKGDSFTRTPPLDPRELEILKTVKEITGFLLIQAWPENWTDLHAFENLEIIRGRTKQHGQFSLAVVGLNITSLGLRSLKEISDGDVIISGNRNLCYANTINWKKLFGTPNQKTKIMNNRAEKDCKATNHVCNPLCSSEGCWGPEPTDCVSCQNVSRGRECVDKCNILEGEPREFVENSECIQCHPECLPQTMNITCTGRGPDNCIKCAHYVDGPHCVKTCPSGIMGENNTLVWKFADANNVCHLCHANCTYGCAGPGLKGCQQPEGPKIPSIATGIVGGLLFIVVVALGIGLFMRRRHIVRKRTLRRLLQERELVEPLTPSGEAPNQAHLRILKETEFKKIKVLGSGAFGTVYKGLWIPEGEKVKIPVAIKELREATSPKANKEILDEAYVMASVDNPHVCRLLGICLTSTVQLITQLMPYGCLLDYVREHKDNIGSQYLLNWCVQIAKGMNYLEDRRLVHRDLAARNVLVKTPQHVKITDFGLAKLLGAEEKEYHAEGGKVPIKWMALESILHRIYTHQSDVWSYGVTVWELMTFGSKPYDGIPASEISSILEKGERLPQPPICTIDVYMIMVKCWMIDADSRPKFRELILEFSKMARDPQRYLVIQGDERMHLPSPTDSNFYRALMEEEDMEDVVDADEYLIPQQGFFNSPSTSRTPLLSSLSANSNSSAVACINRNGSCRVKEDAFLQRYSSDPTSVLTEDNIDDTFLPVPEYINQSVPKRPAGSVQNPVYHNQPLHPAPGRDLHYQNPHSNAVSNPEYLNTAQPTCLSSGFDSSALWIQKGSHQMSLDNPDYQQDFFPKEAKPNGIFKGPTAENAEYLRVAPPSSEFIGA
# T2 sequence (O14920 whole entry): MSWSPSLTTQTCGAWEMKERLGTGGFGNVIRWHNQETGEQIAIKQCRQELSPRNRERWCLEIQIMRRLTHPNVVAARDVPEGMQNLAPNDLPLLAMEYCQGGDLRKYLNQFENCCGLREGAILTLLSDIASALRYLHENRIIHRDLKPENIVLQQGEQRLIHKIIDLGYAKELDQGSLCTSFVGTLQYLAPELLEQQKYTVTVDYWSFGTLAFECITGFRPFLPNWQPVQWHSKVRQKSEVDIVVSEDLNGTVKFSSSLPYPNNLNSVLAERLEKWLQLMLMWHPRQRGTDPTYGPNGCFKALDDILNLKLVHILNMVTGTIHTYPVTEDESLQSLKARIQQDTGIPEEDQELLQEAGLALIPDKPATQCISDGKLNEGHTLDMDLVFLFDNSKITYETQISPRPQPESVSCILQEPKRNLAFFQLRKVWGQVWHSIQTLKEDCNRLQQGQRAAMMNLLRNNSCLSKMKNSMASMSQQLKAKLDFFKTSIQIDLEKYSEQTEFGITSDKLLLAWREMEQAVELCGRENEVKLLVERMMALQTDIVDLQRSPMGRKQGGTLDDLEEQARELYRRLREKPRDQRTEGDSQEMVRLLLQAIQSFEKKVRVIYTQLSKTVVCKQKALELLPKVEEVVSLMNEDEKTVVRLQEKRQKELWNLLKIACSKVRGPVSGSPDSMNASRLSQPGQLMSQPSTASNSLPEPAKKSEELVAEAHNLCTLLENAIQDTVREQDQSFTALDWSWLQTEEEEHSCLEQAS
# T2 sequence (O15111 whole entry): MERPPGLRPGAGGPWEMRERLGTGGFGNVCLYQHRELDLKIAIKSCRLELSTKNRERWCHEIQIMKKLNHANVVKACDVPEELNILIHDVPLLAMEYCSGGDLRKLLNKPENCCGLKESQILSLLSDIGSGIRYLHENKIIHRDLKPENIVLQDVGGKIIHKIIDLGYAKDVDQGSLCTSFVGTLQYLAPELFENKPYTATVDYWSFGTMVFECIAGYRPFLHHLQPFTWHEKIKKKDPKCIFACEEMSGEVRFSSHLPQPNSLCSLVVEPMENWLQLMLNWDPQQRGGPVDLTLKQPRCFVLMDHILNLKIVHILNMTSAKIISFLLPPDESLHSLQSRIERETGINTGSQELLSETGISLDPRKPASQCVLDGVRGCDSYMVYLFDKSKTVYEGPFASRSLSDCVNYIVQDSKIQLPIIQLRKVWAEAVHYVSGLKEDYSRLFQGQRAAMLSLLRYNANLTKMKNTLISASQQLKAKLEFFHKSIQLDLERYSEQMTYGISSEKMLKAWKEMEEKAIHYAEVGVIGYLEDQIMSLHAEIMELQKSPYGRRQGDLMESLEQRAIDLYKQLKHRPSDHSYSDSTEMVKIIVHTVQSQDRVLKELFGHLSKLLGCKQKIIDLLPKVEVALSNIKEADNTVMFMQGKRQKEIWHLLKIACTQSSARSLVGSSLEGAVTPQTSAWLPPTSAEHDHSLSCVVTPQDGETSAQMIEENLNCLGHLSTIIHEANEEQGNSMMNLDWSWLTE
# T2 sequence (Q9Y6K9 whole entry partner): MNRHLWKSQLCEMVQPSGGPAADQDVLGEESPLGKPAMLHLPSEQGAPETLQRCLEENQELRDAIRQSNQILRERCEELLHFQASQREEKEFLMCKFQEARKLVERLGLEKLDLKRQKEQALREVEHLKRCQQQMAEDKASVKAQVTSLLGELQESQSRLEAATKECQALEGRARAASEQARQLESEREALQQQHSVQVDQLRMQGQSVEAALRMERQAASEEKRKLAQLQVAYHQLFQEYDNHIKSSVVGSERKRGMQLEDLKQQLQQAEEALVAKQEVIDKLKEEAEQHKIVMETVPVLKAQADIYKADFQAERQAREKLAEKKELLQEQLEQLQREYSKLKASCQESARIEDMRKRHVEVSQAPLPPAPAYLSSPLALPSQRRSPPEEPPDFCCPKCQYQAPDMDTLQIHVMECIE
compound,measurement,setting,value
"CC/C=C\C/C=C\C/C=C\CCCCCCCC(=O)O [ALA, alpha-linolenic acid]",ischemia- and reperfusion-induced arrhythmias (incidence of VT and VF),rat models,not
same,reduction of fasting sIL6R concentration,sIL6R,approximately 11%
"O=c1c(-c2ccc(O)cc2)coc2cc(O)cc(O)c12 [genistein, 4′,5,7-trihydroxyisoflavone]","IL-6- and OM-mediated effects (growth, resistance to etoposide and cisplatin)",[1],inhibited
same,nuclear NF-kappa B levels,T lymphoma cells,marked reduction
same,mean inhibition of thymidine uptake (+/−SD inhibition of basal),[2]; 74 (unit uncertain),61.96+/−18.96%
same,mean inhibition of thymidine uptake,[2]; 740 (unit uncertain),92.65+/−8.59%
same,Epidermal growth factor stimulated thymidine uptake,[2]; clinically nonfunctioning adenomas,inhibited
same,"LPS-induced increase in IL-1 beta, IL-6, and TNF-alpha mRNA levels",[3]; 37 microM,completely or more than 80% blocked
same,LPS activation of NF-kappa B,[3],reduced
same,LPS-induced IL-6 protein synthesis and IL-6 bioactivity,[3],reduced to baseline levels
same,serum levels of autoantibodies to collagen II,mice; immunized mice,significantly lower
same,DTH reaction to oxazolone and granulocyte-mediated response,mice; vs control mice,significantly suppressed
same,CuLDL-induced enhancement of STAT1 and STAT3 Tyr-phosphorylation and DNA-binding activity,STAT1 and STAT3,markedly prevented
same,growth of MCF-7 cells,[4],significantly inhibit the growth
same,"band of p27, Western blot",[5],65.4+/−4.7 gray scale value
same,cells in G2 phase,[5],26.2%
same,cells in G(1) phase,[5],73.8%
same,50% inhibitory dose (IC50) for thymidine incorporation,[6],higher for the SHR vascular smooth muscle cells
same,average cross sectional area of atherosclerotic lesion,"[7]; hyperlipidemic plus genistein diet, 4 and half months",0.997 mm2
same,MMP-3 expression,"[7]; western blotting, vs HD group",reduction
same,inhibition of primary tumor growth,[8]; combined with radiation 5 Gy,87%
same,inhibition of primary tumor growth,"[8]; genistein alone, 5 mg/d p.o.",30%
same,size of lymph nodes,[8]; genistein alone,increased the size of lymph nodes
same,stimulatory effect of PDGF on sAPPalpha,[9],blocked
same,expression of IL-6 mRNA induced by Ang II,[10],completely abolished
same,retinal albumin by Western blot,[11]; 300 mg,decreased
same,retinal vascular leakage of radiolabeled sucrose,"[11]; 150 or 300 mg/kg food, 6 months, vs diabetic control",significantly less
same,wall thickness of the basilar artery,"[12]; 1 mg/kg chow, 2 months",reduced the wall thickness significantly
same,vasodilatation induced by ACh and Y-26763,[12],significantly improved
same,IC50,[13],223 µM
same,attenuating menopause-related bone loss,[14],as effective as hormone replacement therapy
Epigallocatechin-3-gallate [EGCG],beta-amyloid (Abeta) levels and plaques,Tg APPsw transgenic mice,decreased
same,phosphorylation of c-Jun,"Male Wistar rats; 10 mg/kg iv then 10 mg/kg/h, all time points",markedly attenuated
same,Plasma IL-6 and creatine phosphokinase levels,Male Wistar rats; 10 mg/kg iv then 10 mg/kg/h,decreased
same,myocardial damage and myeloperoxidase activity,Male Wistar rats; 10 mg/kg iv then 10 mg/kg/h,reduced
same,"reperfusion-induced activation of IKK, degradation of IκB-α, activation of NF-κB","Male Wistar rats; rat, in vivo",reduced
same,EGF- or TPA-induced JB6 cell transformation,JB6 cell,inhibit
same,activator protein-1 (AP-1) activation,JB6 cell,inhibited
same,cell proliferation and apoptosis,[15],inhibition of cell proliferation
same,TNF-α-mediated IKK activation,IKK [16],inhibits
same,IKK activity,IKK [17],inhibited
same,reduction of Abeta generation,[18],≤ 54%
same,chemokine induced neutrophil chemotaxis,neutrophil,dramatically inhibit
same,NF-kappaB nuclear translocation and IL-6 secretion induced by UVB and UVA,NF-kappaB,dramatically inhibited
same,cell growth in culture and soft agar,[19],inhibited
same,NF-kappaB levels in cytoplasm and nucleus,"[20]; 10-80 microM, A431 cells and NHEK",lowering of NF-kappaB levels
same,cell growth of A431 cells,"[20]; dose-dependent, not in NHEK",inhibition of cell growth
same,INF-γ-induced STAT1 activation,STAT-1; T84 epithelial and THP-1 monocytes/macrophages,significantly reduced
same,interferon-γ-induced STAT-1 activation,STAT-1; carcinoma-derived cell lines of non-gut origin,blocked
NCCC(O)(P(=O)(O)O)P(=O)(O)O [pamidronate],HDL-C increased,"[21]; 60 mg intravenous, three cycles every 3 months",10.3%
same,LDL-C decreased,"[21]; 60 mg intravenous, three cycles",5.5%
same,TC/HDL-C decreased,[21],12.5%
same,bone ALP and total ALP,[21],significantly fell
same,IC50,[22],25 µM
same,production by osteoblasts of interleukin-6,osteoblasts,inhibit
same,adverse effect of large intravenous dosages,[23],marked hypocalcemia and/or hypophosphatemia
same,pain in patients with osteoarthritis (with and without osteoporosis),[24],pain reduction
same,Urinary deoxypyridinoline (means+/−SEM),"[25]; single infusion 90 mg, 4 weeks",4.4+/−0.4 nmol/mmol creatinine
same,bone-specific alkaline phosphatase,"[25]; single infusion 90 mg, after 4 weeks",14.1+/−1.2 u/l
same,symptoms,[25]; vs placebo group,improvement
same,mean serum levels of Interleukin-6,Interleukin-6,significantly decreased
CC(C)c1c(C(=O)Nc2ccccc2)c(-c2ccccc2)c(-c2ccc(F)cc2)n1CC[C@@H](O)C[C@@H](O)CC(=O)O [atorvastatin],increase in glucose infusion rate and glucose disposal (Rd),[26],approximately two-fold
same,"effect on human T, B and myeloma tumor cells",[27],cytotoxic effect
same,carotid IMT,[28],significant IMT regression
same,FMD,[29]; 2 weeks,higher than baseline
same,IL-6 levels,[29]; 3 and 9 months vs baseline,significantly reduced
same,sICAM-1 levels,"[29]; FH 80 mg/day, NFH 10 mg/day, 2 weeks to 9 months vs baseline",significantly reduced
same,insulin resistance index,KK/Ay mice,decreased
same,non-HDL-cholesterol level,KK/Ay mice,significantly decreased
same,relative risk reduction in the primary endpoint,[30]; 10 mg daily for four years,37%
same,rate reduction of major cardiovascular events,[30]; 10 mg daily vs placebo,37%
same,patients with at least one major cardiovascular event,"[30]; 10 mg daily, n=1428, median follow-up 3.9 years",83
same,acute coronary heart disease events reduced,[30]; 10 mg daily,36%
same,adverse events,[30]; 10 mg daily,No excess of adverse events
same,coronary re-vascularisations reduced,[30]; 10 mg daily,31%
same,death rate reduced,[30]; 10 mg daily,27%
same,major cardiovascular event rate,[30]; 10 mg daily,1.54 per 100 person-years at risk
same,rate of stroke reduced,[30]; 10 mg daily,48%
same,proliferation of MCF-7 cells,[31],inhibit the proliferation
COc1cccc(-c2cc(=O)c3ccccc3o2)c1N [PD98059],protection of IL-6 against apoptosis,[32],completely blocked
same,expression of IL-6 mRNA induced by Ang II,[10],completely abolished
O=P(O)(O)C(O)(Cc1cnc2ccccn12)P(=O)(O)O [YM529],severity of experimental arthritis,[33],suppressed the severity of disease
same,survival,[34],prolonged the survival
same,growth of leukemic cells incl. P-gp over-expressing cell line,leukemic cells,inhibited the growth
